Experiments:
DPP IV [1] = target: DPP IV (Homo sapiens, UniProt P27487); assay: DPP IV inhibitory activity and selectivity in vitro; type: biochemical
DPP IV [2] = target: T1, DPP IV (Mus musculus, UniProt P28843); assay: Inhibition of DPP IV activity in normal mice plasma; type: in vivo
T1 construct: from tissue; host or cells: plasma of normal mice

DPP IV [3] = target: T2, DPP IV (Rattus norvegicus, UniProt P14740); assay: Inhibition of DPP IV activity in normal rat plasma; type: in vivo
T2 construct: from tissue; host or cells: plasma of normal rats

normal ICR mice = assay: Oral glucose tolerance of normal ICR mice; type: in vivo
ob/ob mice = assay: Fasting blood glucose of ob/ob mice, chronic administration; type: in vivo
db/db mice = assay: Fasting blood glucose of gene-deficient db/db mice, chronic administration; type: in vivo
Pharmacokinetics in rats = type: in vivo
Pharmacokinetics in dogs = type: in vivo
ICR mice = assay: Acute toxicity test of ICR mice; type: in vivo; details: 300 mg/kg administration group
rats = assay: Subacute toxicity experiment of rats; type: in vivo; details: 150 mg/kg orally administrated group
[4] = Hygroscopicity analysis (DVS); type: physicochemical; details: for hygroscopicity (DVS): 25° C.; for water absorbed: at 80% RH; for humidity variation range: conventional storage humidity range
Method: Dynamic vapor absorption (DVS) test/water absorption test rapidly measures the increase and loss of the moisture in the sample caused by flow carrier gas with set relative humidity (RH), wherein the sample is placed on a digital microbalance with high sensitivity and high stability at a self-suspension state, and then the adsorption/desorption of water vapor is measured by measuring the increase/decrease of mass of the material, thereby determining the hygroscopicity of the sample.
In the present invention, the test parameters of the DVS are as follows: Instrument type: SMS DVS Intrinsic; Non-hydrate: 0 to 95%-0% RH; Temperature: 25° C.; Hydrate: 40 to 95%-0% RH; Temperature: 25° C.

[5] = versus sitagliptin and vildagliptin

DPP IV (Homo sapiens, UniProt P27487), sequence (P27487 whole entry, species assumed): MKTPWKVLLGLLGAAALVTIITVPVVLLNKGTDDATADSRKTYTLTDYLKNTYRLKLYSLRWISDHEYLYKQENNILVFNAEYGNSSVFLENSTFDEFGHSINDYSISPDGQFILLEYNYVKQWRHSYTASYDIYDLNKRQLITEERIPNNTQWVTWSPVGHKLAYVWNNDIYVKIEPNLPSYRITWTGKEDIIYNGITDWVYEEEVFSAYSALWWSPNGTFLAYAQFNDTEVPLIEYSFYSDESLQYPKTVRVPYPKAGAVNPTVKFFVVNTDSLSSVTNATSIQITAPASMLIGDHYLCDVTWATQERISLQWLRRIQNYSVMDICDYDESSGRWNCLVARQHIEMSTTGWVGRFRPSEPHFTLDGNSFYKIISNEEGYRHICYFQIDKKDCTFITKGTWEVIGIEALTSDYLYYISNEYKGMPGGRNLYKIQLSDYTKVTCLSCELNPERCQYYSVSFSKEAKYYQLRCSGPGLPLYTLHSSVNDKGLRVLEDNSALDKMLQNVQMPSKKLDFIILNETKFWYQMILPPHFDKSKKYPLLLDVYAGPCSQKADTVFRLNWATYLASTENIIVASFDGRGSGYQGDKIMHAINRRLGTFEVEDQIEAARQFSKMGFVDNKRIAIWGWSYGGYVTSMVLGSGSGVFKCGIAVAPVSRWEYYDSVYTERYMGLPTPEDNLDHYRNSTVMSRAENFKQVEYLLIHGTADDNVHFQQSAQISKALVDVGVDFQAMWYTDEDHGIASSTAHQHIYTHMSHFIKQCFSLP
T1 sequence (P28843 37-760 limits assumed): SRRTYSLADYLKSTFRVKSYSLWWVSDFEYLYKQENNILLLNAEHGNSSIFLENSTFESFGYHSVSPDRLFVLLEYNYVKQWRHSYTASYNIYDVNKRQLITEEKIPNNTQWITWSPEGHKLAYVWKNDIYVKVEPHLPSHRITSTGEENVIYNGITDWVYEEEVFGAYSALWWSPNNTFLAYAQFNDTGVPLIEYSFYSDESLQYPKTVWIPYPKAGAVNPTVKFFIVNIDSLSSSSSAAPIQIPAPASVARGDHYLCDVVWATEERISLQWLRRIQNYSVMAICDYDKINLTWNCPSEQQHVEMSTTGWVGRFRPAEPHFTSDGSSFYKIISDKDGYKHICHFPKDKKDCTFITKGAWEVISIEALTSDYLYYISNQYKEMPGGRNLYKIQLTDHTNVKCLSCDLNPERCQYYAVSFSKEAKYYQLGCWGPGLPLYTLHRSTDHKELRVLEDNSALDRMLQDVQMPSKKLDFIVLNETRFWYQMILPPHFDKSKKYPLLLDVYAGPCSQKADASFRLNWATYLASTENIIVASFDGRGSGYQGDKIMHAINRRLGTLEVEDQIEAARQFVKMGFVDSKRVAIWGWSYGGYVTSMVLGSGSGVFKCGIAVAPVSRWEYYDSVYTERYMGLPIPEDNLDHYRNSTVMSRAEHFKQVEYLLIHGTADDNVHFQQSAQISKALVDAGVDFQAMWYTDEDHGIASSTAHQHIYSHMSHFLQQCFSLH
T2 sequence (P14740 37-767 limits assumed): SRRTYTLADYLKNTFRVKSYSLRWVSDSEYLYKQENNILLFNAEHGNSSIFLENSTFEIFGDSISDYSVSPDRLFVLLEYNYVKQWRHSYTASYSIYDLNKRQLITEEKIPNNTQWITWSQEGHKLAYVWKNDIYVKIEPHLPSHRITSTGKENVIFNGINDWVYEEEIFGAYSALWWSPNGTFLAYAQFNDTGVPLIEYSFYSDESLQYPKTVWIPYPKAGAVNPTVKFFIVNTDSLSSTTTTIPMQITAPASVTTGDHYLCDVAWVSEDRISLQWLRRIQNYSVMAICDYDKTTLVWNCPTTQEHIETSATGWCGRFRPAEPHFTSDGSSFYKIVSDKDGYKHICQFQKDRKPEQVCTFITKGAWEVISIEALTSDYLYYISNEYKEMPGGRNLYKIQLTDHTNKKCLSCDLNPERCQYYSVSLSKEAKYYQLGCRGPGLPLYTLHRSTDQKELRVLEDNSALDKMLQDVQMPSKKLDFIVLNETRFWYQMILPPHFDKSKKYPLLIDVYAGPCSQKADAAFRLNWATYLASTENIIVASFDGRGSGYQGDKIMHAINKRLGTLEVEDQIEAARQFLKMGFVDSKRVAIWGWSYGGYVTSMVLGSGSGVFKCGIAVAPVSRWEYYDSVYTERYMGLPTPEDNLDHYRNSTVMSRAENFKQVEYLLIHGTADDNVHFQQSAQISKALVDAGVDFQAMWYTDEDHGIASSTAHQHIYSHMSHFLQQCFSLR

COC(=O)c1cc2nc(N3CCC[C@@H](N)C3)n(Cc3ccccc3C#N)c(=O)c2s1 [compound of formula I, (R)-methyl-2-(3-aminopiperidin-1-yl)-3-(2-cyanobenzyl)-4-carbonyl-3,4-dihydrothiophene[3,2-d]pyrimidine-6-carboxylic acid]
DPP IV inhibitory activity (DPP IV [1]; in vitro): up to nanomolar level
DPP IV inhibitory activity in vitro compared with marketed drugs (DPP IV [1]; [5]): superior to the marketed drugs, sitagliptin and vildagliptin
selectivity in vitro compared with marketed drugs (DPP IV [1]; [5]): superior to the marketed drugs, sitagliptin and vildagliptin
DPP IV inhibitory activity in animals compared with alogliptin (DPP IV [2]): superior to the marketed drug alogliptin
inhibition of DPP IV activity in plasma (DPP IV [2]): effective in inhibiting DPP IV activity
DPP IV inhibitory activity in animals compared with alogliptin (DPP IV [3]): superior to the marketed drug alogliptin
inhibition of DPP IV activity in plasma (DPP IV [3]): effective in inhibiting DPP IV activity
effect on oral glucose tolerance (normal ICR mice): increase the oral glucose tolerance of normal ICR mice in a dose-dependent manner
onset dose, oral glucose tolerance (normal ICR mice): 0.1 mg/kg
oral glucose tolerance effect compared with alogliptin (normal ICR mice): better than alogliptin
effect on fasting blood glucose (ob/ob mice): effectively decrease fasting blood glucose
fasting blood glucose effect compared with positive control alogliptin (ob/ob mice): superior to the positive control drug alogliptin
effect on fasting blood glucose (db/db mice): reduce its fasting blood glucose
fasting blood glucose effect compared with positive control alogliptin (db/db mice): comparable to the positive control drug alogliptin
AUC0-t compared with alogliptin (Pharmacokinetics in rats): superior to those of the marketed drug alogliptin
half-life compared with alogliptin (Pharmacokinetics in rats): superior to those of the marketed drug alogliptin
AUC0-t compared with alogliptin (Pharmacokinetics in dogs): superior to those of the marketed drug alogliptin
half-life compared with alogliptin (Pharmacokinetics in dogs): superior to those of the marketed drug alogliptin
acute toxicity, animal death (ICR mice): no animal died
subacute toxicity (rats): no obvious toxicity reaction

COC(=O)c1cc2nc(N3CCC[C@@H](N)C3)n(Cc3ccccc3C#N)c(=O)c2s1.Cl [hydrochloride, hydrochloride of (R)-methyl-2-(3-aminopiperidin-1-yl)-3-(2-cyanobenzyl)-4-carbonyl-3,4-dihydrothiophene [3,2-d] pyrimidine-6-carboxylic acid]
hygroscopicity (DVS) [4]: slightly hygroscopic
water absorbed [4]: 2.54%
humidity variation range [4]: less than 3.0%

COC(=O)c1cc2nc(N3CCC[C@@H](N)C3)n(Cc3ccccc3C#N)c(=O)c2s1.O=C(O)/C=C\C(=O)O [maleate, maleate of (R)-methyl-2-(3-aminopiperidin-1-yl)-3-(2-cyanobenzyl)-4-carbonyl-3,4-dihydrothiophene[3,2-d]pyrimidine-6-carboxylic acid]
hygroscopicity (DVS) [4]: slightly hygroscopicity
water absorbed [4]: 1.57%
humidity variation range [4]: less than 2.0%

COC(=O)c1cc2nc(N3CCC[C@@H](N)C3)n(Cc3ccccc3C#N)c(=O)c2s1.O=P(O)(O)O [phosphate, phosphate of (R)-methyl-2-(3-aminopiperidin-1-yl)-3-(2-cyanobenzyl)-4-carbonyl-3,4-dihydrothiophene[3,2-d]pyrimidine-6-carboxylic acid]
hygroscopicity (DVS) [4]: slightly hygroscopic
humidity variation range [4]: small

glycolate of (R)-methyl-2-(3-aminopiperidin-1-yl)-3-(2-cyanobenzyl)-4-carbonyl-3,4-dihydrothiophene[3,2-d]pyrimidine-6-carboxylic acid
hygroscopicity (DVS) [4]: slightly hygroscopic
water absorbed [4]: 1.23%
humidity variation range [4]: less than 2.0%

— patent publication US10611774B2, “Salt form of DPPIV inhibitor and preparation method thereof” (SHANGHAI INSTITUTE OF MATERIA MEDICA, CHINESE ACADEMY OF …, priority 2016, dated 2020)
